Drawing on ChEMBL document CHEMBL5131499, “Design, synthesis and glycosidase inhibition of C-4 branched LAB and DAB derivatives” (Eur J Med Chem, 2022), this text covers inhibition and IC50 for 8 compounds.

The species entered for one assay is Sus scrofa. Description: Inhibition of porcine kidney alpha-trehalase assessed as release of p-nitrophenol at 1000 uM using p-nitrophenyl glycoside as substrate by spectrometric assay relative to control.
The species named for a further assay is Rattus norvegicus. Put plainly: Inhibition of rat intestinal alpha-trehalase assessed as release of p-nitrophenol at 1000 uM using p-nitrophenyl glycoside as substrate by spectrometric assay relative to control.
Assay [1] has as its target Sucrase-isomaltase, intestinal (Rattus norvegicus, UniProt P23739). Description: Inhibition of rat intestinal sucrase assessed as release of p-nitrophenol using p-nitrophenyl glycoside as substrate by spectrometric assay.
Assay [2] deals with T1, Lysosomal alpha-glucosidase (Homo sapiens, UniProt P10253). Put plainly: Inhibition of human lysosomal alpha glucosidase assessed as release of p-nitrophenol using p-nitrophenyl glycoside as substrate by spectrometric assay.
A further assay has as its system Prunus dulcis. Description: Inhibition of almond beta-glucosidase assessed as release of p-nitrophenol at 1000 uM using p-nitrophenyl glycoside as substrate by spectrometric assay relative to control.
Assay [3] can be described thus: Inhibition of yeast alpha-glucosidase assessed as release of p-nitrophenol using p-nitrophenyl glycoside as substrate by spectrometric assay. Details: species or system Saccharomyces cerevisiae.
Assay [4] can be described thus: Inhibition of rice alpha-glucosidase assessed as release of p-nitrophenol using p-nitrophenyl glycoside as substrate by spectrometric assay. Details: species or system Oryza sativa.
The species named for assay [5] is Bos taurus. Put plainly: Inhibition of bovine liver beta-glucosidase assessed as release of p-nitrophenol at 1000 uM using p-nitrophenyl glycoside as substrate by spectrometric assay relative to control.
Assay [6] concerns the target Alpha-galactosidase (Coffea arabica) (UniProt Q42656). Description: Inhibition of coffee beans alpha-galactosidase assessed as release of p-nitrophenol at 1000 uM using p-nitrophenyl glycoside as substrate by spectrometric assay relative to control.
The species named for assay [7] is Bos taurus. Put plainly: Inhibition of bovine liver beta-galactosidase assessed as release of p-nitrophenol at 1000 uM using p-nitrophenyl glycoside as substrate by spectrometric assay relative to control.
Assay [8] addresses T2, Alpha-mannosidase (Canavalia ensiformis) (UniProt C0HJB3).
T2 sequence (whole entry): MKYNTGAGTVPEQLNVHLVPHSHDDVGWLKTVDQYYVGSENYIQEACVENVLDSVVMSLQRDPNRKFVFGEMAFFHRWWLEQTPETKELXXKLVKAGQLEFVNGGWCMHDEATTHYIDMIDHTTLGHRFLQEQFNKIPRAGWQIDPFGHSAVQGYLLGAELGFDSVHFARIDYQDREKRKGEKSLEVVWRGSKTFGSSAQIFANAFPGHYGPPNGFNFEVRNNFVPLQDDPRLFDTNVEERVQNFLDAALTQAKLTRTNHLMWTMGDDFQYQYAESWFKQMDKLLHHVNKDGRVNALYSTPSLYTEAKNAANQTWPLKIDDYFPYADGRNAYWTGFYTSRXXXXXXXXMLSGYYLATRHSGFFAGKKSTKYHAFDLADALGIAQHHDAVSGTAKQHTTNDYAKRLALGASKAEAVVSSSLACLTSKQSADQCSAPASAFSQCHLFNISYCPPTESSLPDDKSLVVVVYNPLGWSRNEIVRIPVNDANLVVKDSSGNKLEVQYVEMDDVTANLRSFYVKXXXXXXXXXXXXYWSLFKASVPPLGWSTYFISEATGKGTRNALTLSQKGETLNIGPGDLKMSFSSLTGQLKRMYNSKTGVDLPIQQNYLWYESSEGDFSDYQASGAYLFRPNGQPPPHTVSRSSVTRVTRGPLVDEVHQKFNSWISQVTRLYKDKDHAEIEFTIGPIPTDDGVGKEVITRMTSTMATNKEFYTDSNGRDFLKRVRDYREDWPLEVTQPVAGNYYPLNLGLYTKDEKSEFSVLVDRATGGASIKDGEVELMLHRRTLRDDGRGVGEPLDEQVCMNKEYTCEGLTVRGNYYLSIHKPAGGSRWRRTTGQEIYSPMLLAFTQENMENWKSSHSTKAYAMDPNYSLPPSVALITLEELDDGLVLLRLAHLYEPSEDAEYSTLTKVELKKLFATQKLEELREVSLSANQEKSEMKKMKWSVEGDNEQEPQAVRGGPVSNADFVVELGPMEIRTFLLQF
Put plainly: Inhibition of jack bean alpha-mannosidase assessed as release of p-nitrophenol at 1000 uM using p-nitrophenyl glycoside as substrate by spectrometric assay relative to control.

For the next assay, the system named is Helix pomatia. Put plainly: Inhibition of snail beta-mannosidase assessed as release of p-nitrophenol at 1000 uM using p-nitrophenyl glycoside as substrate by spectrometric assay relative control.
The target in assay [9] is T3, Tissue alpha-L-fucosidase (Bos taurus) (UniProt Q2KIM0).
T3 sequence (whole entry): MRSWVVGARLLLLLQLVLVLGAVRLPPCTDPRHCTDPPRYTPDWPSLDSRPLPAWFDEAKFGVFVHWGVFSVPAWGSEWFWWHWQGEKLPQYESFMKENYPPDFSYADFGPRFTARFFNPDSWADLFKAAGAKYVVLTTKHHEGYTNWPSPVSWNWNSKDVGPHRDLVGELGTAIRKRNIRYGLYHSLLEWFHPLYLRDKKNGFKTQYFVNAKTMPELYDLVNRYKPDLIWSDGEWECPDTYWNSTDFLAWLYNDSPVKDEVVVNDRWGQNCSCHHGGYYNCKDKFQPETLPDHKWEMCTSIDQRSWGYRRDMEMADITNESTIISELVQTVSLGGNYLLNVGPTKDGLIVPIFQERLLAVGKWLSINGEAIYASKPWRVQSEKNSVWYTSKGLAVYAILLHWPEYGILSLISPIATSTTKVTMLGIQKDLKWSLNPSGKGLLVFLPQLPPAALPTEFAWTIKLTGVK
Put plainly: Inhibition of bovine kidney alpha-L-fucosidase assessed as release of p-nitrophenol at 1000 uM using p-nitrophenyl glycoside as substrate by spectrometric assay relative to control.

The next assay has as its system Aspergillus niger. Description: Inhibition of Aspergillus niger amyloglucosidase assessed as release of p-nitrophenol at 1000 uM using p-nitrophenyl glycoside as substrate by spectrometric assay relative to control.
The next assay has as its system Penicillium decumbens. Put plainly: Inhibition of Penicillium decumbens alpha-L-rhamnosidase assessed as release of p-nitrophenol at 1000 uM using p-nitrophenyl glycoside as substrate by spectrometric assay relative to control.
The next assay concerns Escherichia coli. Description: Inhibition of Escherichia coli beta-glucuronidase assessed as release of p-nitrophenol at 1000 uM using p-nitrophenyl glycoside as substrate by spectrometric assay relative to control.
The species entered for assay [10] is Bos taurus. Put plainly: Inhibition of bovine liver beta-glucronidase assessed as release of p-nitrophenol at 1000 uM using p-nitrophenyl glycoside as substrate by spectrometric assay relative to control.
The target in assay [11] is T1, Lysosomal alpha-glucosidase. Description: Inhibition of human lysosomal alpha glucosidase assessed as release of p-nitrophenol at 1000 uM using p-nitrophenyl glycoside as substrate by spectrometric assay relative to control.
Another assay deals with Saccharomyces cerevisiae. Description: Inhibition of yeast alpha-glucosidase assessed as release of p-nitrophenol at 1000 uM using p-nitrophenyl glycoside as substrate by spectrometric assay relative to control.
Another assay concerns Oryza sativa. Put plainly: Inhibition of rice alpha-glucosidase assessed as release of p-nitrophenol at 1000 uM using p-nitrophenyl glycoside as substrate by spectrometric assay relative to control.

pIC50: −log10 of the molar value.

Sucrase-isomaltase, intestinal, sequence (P23739 1-1013 limits assumed): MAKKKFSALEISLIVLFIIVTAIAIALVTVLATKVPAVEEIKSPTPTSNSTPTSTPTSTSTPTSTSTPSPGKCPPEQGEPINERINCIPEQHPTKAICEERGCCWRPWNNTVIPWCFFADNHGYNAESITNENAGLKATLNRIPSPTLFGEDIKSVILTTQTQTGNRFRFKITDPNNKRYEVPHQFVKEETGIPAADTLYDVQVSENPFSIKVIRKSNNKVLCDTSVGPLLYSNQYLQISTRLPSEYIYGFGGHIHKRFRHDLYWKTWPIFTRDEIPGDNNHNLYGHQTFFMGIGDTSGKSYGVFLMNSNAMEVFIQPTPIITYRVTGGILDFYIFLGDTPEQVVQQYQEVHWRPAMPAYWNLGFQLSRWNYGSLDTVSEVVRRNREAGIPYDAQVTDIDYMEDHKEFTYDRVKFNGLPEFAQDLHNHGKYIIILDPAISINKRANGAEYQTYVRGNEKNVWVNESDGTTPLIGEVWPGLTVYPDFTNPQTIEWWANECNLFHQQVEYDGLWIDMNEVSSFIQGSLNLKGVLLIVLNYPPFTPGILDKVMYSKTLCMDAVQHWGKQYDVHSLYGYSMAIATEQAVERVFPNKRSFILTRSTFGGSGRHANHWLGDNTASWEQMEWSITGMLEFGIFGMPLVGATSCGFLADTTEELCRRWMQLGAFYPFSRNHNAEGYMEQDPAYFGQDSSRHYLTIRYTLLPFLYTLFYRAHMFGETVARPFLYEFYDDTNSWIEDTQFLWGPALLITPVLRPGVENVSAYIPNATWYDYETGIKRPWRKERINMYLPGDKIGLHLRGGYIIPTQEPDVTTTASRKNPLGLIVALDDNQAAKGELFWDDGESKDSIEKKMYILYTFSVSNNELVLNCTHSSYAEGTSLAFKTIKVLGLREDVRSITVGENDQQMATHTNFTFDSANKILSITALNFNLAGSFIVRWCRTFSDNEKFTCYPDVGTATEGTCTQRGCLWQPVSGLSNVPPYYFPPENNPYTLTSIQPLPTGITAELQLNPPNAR
Sucrase-isomaltase, intestinal, sequence (P23739 1014-1841 limits assumed): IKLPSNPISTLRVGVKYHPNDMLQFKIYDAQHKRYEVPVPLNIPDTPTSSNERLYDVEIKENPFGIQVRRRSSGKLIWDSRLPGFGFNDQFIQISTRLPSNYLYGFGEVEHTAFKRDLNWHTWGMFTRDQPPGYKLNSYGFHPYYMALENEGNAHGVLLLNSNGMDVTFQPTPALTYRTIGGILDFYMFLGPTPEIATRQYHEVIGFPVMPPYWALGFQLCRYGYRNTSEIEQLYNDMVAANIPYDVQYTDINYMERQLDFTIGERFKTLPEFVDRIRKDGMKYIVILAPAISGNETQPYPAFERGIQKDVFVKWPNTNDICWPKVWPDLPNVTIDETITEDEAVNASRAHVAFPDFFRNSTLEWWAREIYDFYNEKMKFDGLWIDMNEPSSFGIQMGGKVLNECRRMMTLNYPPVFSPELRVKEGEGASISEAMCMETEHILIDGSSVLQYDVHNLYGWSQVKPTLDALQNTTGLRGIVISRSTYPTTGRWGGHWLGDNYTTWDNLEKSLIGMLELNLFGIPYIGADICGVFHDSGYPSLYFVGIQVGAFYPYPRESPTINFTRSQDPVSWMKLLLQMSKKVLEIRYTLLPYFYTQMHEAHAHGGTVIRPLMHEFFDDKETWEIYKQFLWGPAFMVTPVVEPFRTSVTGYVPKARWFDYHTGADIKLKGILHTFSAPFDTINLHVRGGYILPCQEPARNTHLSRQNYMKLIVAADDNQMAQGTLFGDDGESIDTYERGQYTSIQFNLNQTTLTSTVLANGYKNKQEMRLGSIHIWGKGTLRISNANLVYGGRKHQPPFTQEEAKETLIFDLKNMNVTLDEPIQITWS
Alpha-galactosidase (Coffea arabica), sequence (Q42656 16-378 limits assumed): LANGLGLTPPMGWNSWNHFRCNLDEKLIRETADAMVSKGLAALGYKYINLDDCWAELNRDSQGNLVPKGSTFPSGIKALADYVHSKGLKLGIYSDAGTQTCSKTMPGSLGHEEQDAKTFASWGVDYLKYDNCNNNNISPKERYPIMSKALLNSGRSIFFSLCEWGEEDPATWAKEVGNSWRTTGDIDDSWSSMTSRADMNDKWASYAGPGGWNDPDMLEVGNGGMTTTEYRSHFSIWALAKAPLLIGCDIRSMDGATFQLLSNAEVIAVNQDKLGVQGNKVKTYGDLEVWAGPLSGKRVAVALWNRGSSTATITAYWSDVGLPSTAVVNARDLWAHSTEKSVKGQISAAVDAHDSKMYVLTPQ

With `OC[C@@]1(c2ccc(O)cc2)NC[C@@H](O)[C@@H]1O`, the inhibition (usually how much of the control response was suppressed) in the assay filed under Sus scrofa is 4.5%; in the assay listed under Rattus norvegicus, 0%; with Prunus dulcis, 8.7%; in the assay listed under Bos taurus [5], 10.8%; in assay [6], 1.2%; in the assay listed under Bos taurus [7], 20.4%. Also, the inhibition in assay [8] stood at 2.2%; in the assay with Helix pomatia it was 0%; in [9], 0%; in the assay with Aspergillus niger, 9.2%; in the assay on Penicillium decumbens, 5.5%; in the assay with Escherichia coli it was 0.4%. Also, the inhibition in the assay filed under Bos taurus [10] is 19.9%. In addition, the pIC50 (as a rule, the negative decadic logarithm of the IC50, by convention in mol/L) in [1] is 6.13; in [2], 3.43; in [3], 4.19; in assay [4] it was 3.47.

Turning to `OC[C@]1(c2ccc(O)cc2)NC[C@H](O)[C@H]1O`, the inhibition in the assay listed under Sus scrofa was 12.9%; in the assay filed under Rattus norvegicus, 1.2%; with Prunus dulcis, 14.8%; in the assay listed under Bos taurus [5], 27.6%; in [6] it was 3.6%; in the assay listed under Bos taurus [7], 40.3%. Further, the inhibition was found to be 3.4% in assay [8]; 0% with Helix pomatia; 0% in assay [9]; 11.5% in the assay on Aspergillus niger; 4.5% with Penicillium decumbens; 1.8% with Escherichia coli. The inhibition in the assay filed under Bos taurus [10] was determined as 12.6%. The negative logarithm of the IC50 (pIC50) in assay [1] was 6.74; in assay [2], 3.42; in assay [3] it was 4.92; in assay [4], 3.55.

Take `COc1cccc([C@]2(CO)NC[C@@H](O)[C@@H]2O)c1`: the inhibition in the assay listed under Sus scrofa was found to be 12.9%; in the assay listed under Rattus norvegicus, 0%; with Prunus dulcis, 7.8%; in the assay filed under Bos taurus [5] it was 30%; in [6], 1.6%; in the assay filed under Bos taurus [7], 38.9%. Further, the inhibition in [8] was determined as 0%; in the assay on Helix pomatia, 0%; in assay [9] it was 0%; in the assay on Aspergillus niger, 8.3%; in the assay with Penicillium decumbens, 0%; with Escherichia coli, 0%. Moreover, in the assay filed under Bos taurus [10], the inhibition was 10.7%. The negative logarithm of the IC50 (pIC50) in assay [1] is 5.77; in [2] it was 3.11; in assay [3], 5.01; in assay [4], 3.12.

For the compound `OC[C@@]1(c2ccc(F)cc2)NC[C@@H](O)[C@@H]1O`, the inhibition in the assay filed under Sus scrofa stood at 4.4%; in the assay filed under Rattus norvegicus, 25.8%; in the assay with Prunus dulcis it was 0.6%; in the assay filed under Bos taurus [5], 8.4%; in assay [6], 0%; in the assay listed under Bos taurus [7] it was 8.6%. In addition, the inhibition in assay [8] came to 6.6%; in the assay on Helix pomatia, 0.8%; in [9], 0%; in the assay with Aspergillus niger it was 0%; in the assay on Penicillium decumbens, 0%; in the assay with Escherichia coli, 1.5%. In addition, the inhibition in the assay filed under Bos taurus [10] is 16.8%. For the same compound, the pIC50 was 6.70 in [1], 3.15 in [2], 4.15 in [3] and 3.19 in assay [4].

For the compound `Cc1ccc([C@@]2(CO)NC[C@H](O)[C@H]2O)cc1`, the inhibition in the assay filed under Sus scrofa is 0%; in the assay listed under Rattus norvegicus, 12.9%; in the assay on Prunus dulcis it was 7.8%; in assay [11], 45.9%; in the assay filed under Bos taurus [5] it was 16.7%; in assay [6], 0%. The inhibition in the assay listed under Bos taurus [7] is 22.6%; in assay [8], 0%; in the assay on Helix pomatia, 0%; in assay [9], 3.3%; in the assay on Aspergillus niger, 8.3%; in the assay with Penicillium decumbens, 7.4%. Also, the inhibition in the assay on Escherichia coli was 0%; in the assay listed under Bos taurus [10], 8.7%. In addition, the pIC50 in assay [1] is 6.00; in [3], 4.24; in assay [4], 3.16.

In the case of `OC[C@@]1(c2cccc(F)c2)NC[C@@H](O)[C@@H]1O`, the inhibition in the assay listed under Sus scrofa was determined as 3.8%; in the assay filed under Rattus norvegicus, 0%; with Prunus dulcis, 0.9%; in the assay on Saccharomyces cerevisiae, 41.8%; with Oryza sativa, 1.4%; in assay [11], 10.3%. Further, the inhibition stood at 16.7% in the assay filed under Bos taurus [5]; 0% in assay [6]; 21.7% in the assay listed under Bos taurus [7]; 0% in [8]; 0% in the assay on Helix pomatia; 0% in [9]. For the same compound, the inhibition turned out to be 8.3% in the assay on Aspergillus niger, 0% in the assay on Penicillium decumbens, 0% in the assay on Escherichia coli and 26.2% in the assay listed under Bos taurus [10]. The pIC50 in [1] was 5.19.

With `COc1ccc([C@]2(CO)NC[C@@H](O)[C@@H]2O)cc1`, the inhibition in the assay listed under Sus scrofa amounted to 3%; in the assay on Prunus dulcis, 2.7%; in the assay with Saccharomyces cerevisiae, 22%; with Oryza sativa, 37.8%; in assay [11] it was 40.2%; in the assay filed under Bos taurus [5], 33.5%. The inhibition in assay [6] amounted to 7.5%; in the assay listed under Bos taurus [7], 41%; in [8], 0.2%; with Helix pomatia it was 0%; in assay [9], 2.7%; in the assay on Aspergillus niger, 0%. Besides, the inhibition with Penicillium decumbens came out at 0%; with Escherichia coli, 25%; in the assay filed under Bos taurus [10] it was 5.9%. The pIC50 in assay [1] was 3.97.

As for `C[C@]1(CO)NC[C@@H](O)[C@@H]1O`, the inhibition in the assay filed under Sus scrofa is 3.9%; with Prunus dulcis it was 6.8%; in the assay on Saccharomyces cerevisiae, 12.4%; in the assay listed under Bos taurus [5], 35.7%; in [6] it was 0.6%; in the assay listed under Bos taurus [7], 37.6%. The inhibition was found to be 3.8% in assay [8]; 0% in the assay with Helix pomatia; 10.9% in [9]; 4.7% with Aspergillus niger; 10.1% in the assay with Penicillium decumbens; 4.8% in the assay with Escherichia coli. Besides, the inhibition in the assay listed under Bos taurus [10] turned out to be 4.3%. Besides, the negative-log IC50 (pIC50) was 5.66 in assay [1] and 4.80 in assay [2].
